Measured values published in patent US20240083846A1, “SMAC MIMETICS FOR TREATMENT OF CANCER, PROCESS FOR PREPARATION AND PHARMACEUTICAL COMPOSITION THEREOF” (COUNCIL OF SCIENTIFIC & INDUSTRIAL RESEARCH, priority 2020, published 2024).
Entries after “also recorded” stand apart in the source; their conditions may differ.

Assays:
4T1 cells = test: SRB cytotoxicity assay, 4T1; type: cell-based; conditions: Breast (Mouse)
Description: (§1) In vitro cytotoxic activities of different compounds were assessed by using standard SRB assay in different cells. The absorbance of the treated and untreated cells was measured on a multi-well scanning spectrophotometer (Epoch Microplate Reader, Biotek, USA) at a wavelength of 510 nm. Percent growth inhibition was calculated by using the formula […].
(§2) SMAC mimetics promotes tumor cell selective cytotoxic effects. SW 620, HT 29, HCT 116 and VERO cells were treated with series of Smac mimetics at 10 μM dose for 48 hours and cytotoxicity was measured by SRB assay. As C6 had shown robust in-vitro cytotoxic effect against tumor cells but not to VERO cells, we determined IC50 value of C6 against different types of cancer cell lines. ICso values are represented in Table 2.

XIAP BIR2 protein = XIAP BIR2 protein (Homo sapiens, UniProt P98170); test: Fluorescence polarization competition binding assay, XIAP BIR2; conditions: displacement of AVPIAQK(FAM)-OH, fluorescence polarization; read-out: Target Binding BIR2 Ki
Chain of XIAP BIR2 protein (P98170 124-240 limits assumed): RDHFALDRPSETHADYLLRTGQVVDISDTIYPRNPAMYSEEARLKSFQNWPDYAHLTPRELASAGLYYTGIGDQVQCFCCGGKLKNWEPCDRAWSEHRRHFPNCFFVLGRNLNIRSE
Description: The SMAC mimetics 1-9 were tested for their ability to displace the fluorescent labeled peptide AVPIAQK(FAM)-OH from XIAP BIR2 or XIAP BIR3 protein. The dose dependent binding experiment were then carried out by sequentially increasing the concentration of SMAC mimetic compounds at constant concentration of fluorescent labeled peptide and XIAP BIR2 or XIAP BIR3 protein. IC5- values were determined from the plot draw by prism software using nonlinear least-squares analysis. The Ki values of the SMAC mimetics were calculated which was based upon the measured IC50 values, the Kd value between tracer AVPIAQK(FAM)-OH and XIAP BIR2 or XIAP BIR3 complex, and the concentrations of the protein and tracer in the competition assay by using the web based program which are freely accessed at http://sw16.im.med.umich.edu/software/calc_ki/.In-silico.
Binding isotherms were plotted between FP reading versus log values of protein concentration in nM. The data was analysed using GraphPad prism and Kd values were determined using Boltzmann-sigmoidal non-linear regression curve fitting.

cancer cell lines = test: Cytotoxic potential against cancer cell lines (overall statement); type: cell-based; conditions: all cancer cells tested
Description: as §1, §2

HEP-G2 cells = test: SRB cytotoxicity assay, HEP-G2; type: cell-based; conditions: Homo sapiens, HepG2, Liver
Description: as §1, §2

PANC-1 cells = test: SRB cytotoxicity assay, PANC-1; type: cell-based; conditions: Homo sapiens, Pancreas
Description: as §1, §2

VERO cells = test: SRB cytotoxicity assay, VERO; type: cell-based, monkey
Description: as §1

HCT 116 cells = test: SRB cytotoxicity assay, HCT 116; type: cell-based; conditions: Homo sapiens, HCT-116
Description: as §1

[1] = Stability studies of C6 (SIF, SGF, plasma, microsomes); type: in vitro ADME
SK-OV-3 cells = test: SRB cytotoxicity assay, SK-OV-3; type: cell-based; conditions: Homo sapiens, Ovary
Description: as §1, §2

Annexin-V positive cells = test: Annexin-V apoptosis analysis; type: cell-based; conditions: FIG. 2, left
A-549 cells = test: SRB cytotoxicity assay, A-549; type: cell-based; conditions: Homo sapiens, A549, Lung
Description: as §1, §2

HCC1806 cells = test: SRB cytotoxicity assay, HCC1806; type: cell-based; conditions: Homo sapiens, Breast
Description: as §1, §2

B-16 cells = test: SRB cytotoxicity assay, B-16; type: cell-based; conditions: B16, Melanoma (Mouse)
Description: as §1, §2

PARP, Caspase-3, cIAP-1 = test: Apoptosis antibody array / apoptotic markers; type: cell-based; conditions: treated cells vs control, FIG. 2 right and FIG. 3
Description: Apoptosis array was performed by using Proteome Profiler Human Apoptosis Array Kit (ARY009) from R&D Systems following the manufacturer's instructions. The detailed assay procedure was followed. The images were captured by the gel documentation system (Bio-Rad chemidoc XRS plus), while ImageJ software (NIH) was used for analysis and quantification. Plotly software was used for heatmap generation (Montreal, Canada).

[2] = Organ distribution analysis; type: in vivo, mice; conditions: FIG. 9 right panel
U937 cells = test: SRB cytotoxicity assay, U937; type: cell-based; conditions: Homo sapiens, U-937, Lymphoma
Description: as §1, §2

[3] = Pharmacokinetics of C6 in mice (IV, SC, oral)
Description: SIF, SGF and other stability studies were performed by following standard protocol. […] Mice were administered their respective doses according to body weight by intravenous (lateral vein), Subcutaneous route and Oral respectively. Blood samples were collected at 0.083, 0.25, 0.5, 0.75, 1, 2, 4, 8, 12, 24 and 48 hours. Plasma was separated and processed for analysis. For pharmacokinetic analysis, plasma concentration versus time data were plotted and analyzed by non-compartmental analysis method using WinNonlin (Pharsight, Mountain View, CA) software.

786-O cells = test: SRB cytotoxicity assay, 786-O; type: cell-based; conditions: Homo sapiens, 786-0, Kidney
Description: as §1, §2

cancer cells = test: Colony formation assay; type: cell-based; conditions: FIG. 5
Description: The clonogenic colony formation assay was done on single-cell suspension. Briefly, cells were plated in complete McCoy's medium into 12-well plates and 24 hours later, were treated with different agents at different doses either alone or in combination. The cells were cultured for two weeks with renewing the media every 3rd day. The plates were washed with PBS and fixed with ice-cold methanol followed by staining with 0.5% crystal violet in methanol for 30 min. Excess stain was removed by washing with water thoroughly and plates were allowed to dry. Representative images were captured in the gel documentation system (Bio-Rad chemidoc XRS plus) while ImageJ software (NIH) was used for analysis and quantification to monitor single cell colony formation efficiency under the different treatment combinations.

CC[C@H](C)[C@H](NC(=O)[C@@H]1CC[C@H](c2ccc(C)o2)N1C(=O)[C@@H](NC(=O)[C@H](C)NC)C(C)C)C(=O)NC(c1ccccc1)c1ccccc1 [Compound 6, (2S,5R)-N-((2S,3S)-1-(benzhydrylamino)-3-methyl-1-oxopentan-2-yl)-1-((S)-3-methyl-2-((S)-2-(methylamino)propanamido)butanoyl)-5-(5-methylfuran-2-yl)pyrrolidine-2-carboxamide]
IC50 (4T1 cells): 4.17 µM | Ki (XIAP BIR2 protein): 3.21 µM | Cytotoxic activity against cancer cells (in words) (cancer cell lines): potent cytotoxic activity | IC50 (HEP-G2 cells): 7.3 µM | IC50 (PANC-1 cells): 5.83 µM | IC50 (VERO cells; Primates, Kidney (monkey), VERO): > 10 µM | Toxicity against VERO cells (in words) (VERO cells; non-human VERO cells): limited or minimal toxicity | inhibition at 10 µM (HCT 116 cells; 10 μM, 48 hours, SRB assay, read-out: In vitro cytotoxicity at 10 μM dose, HCT 116 (percent growth inhibition)): 61.3 ± 2.9% | IC50 (HCT 116 cells; Colon, HCT116): 8.93 µM | Stability in HLM ([1]; HLM): quite stable | Stability in MLM ([1]; MLM): quite stable | Stability in SGF ([1]; SGF, listed as C6): highly stable; also recorded: quite stable | Stability in SIF ([1]; SIF, listed as C6): highly stable; also recorded: quite stable | Stability in microsome ([1]; microsome): highly stable | Stability in plasma ([1]; plasma): quite stable | IC50 (SK-OV-3 cells): 3.91 µM | Apoptosis (Annexin-V positive cells) (Annexin-V positive cells): promotes smac driven apoptotic features | IC50 (A-549 cells): > 10 µM | IC50 (HCC1806 cells): 5.79 µM | IC50 (B-16 cells): 6.7 µM | Hallmark apoptotic features (PARP, Caspase-3, cIAP-1) (PARP, Caspase-3, cIAP-1): cleavage of PARP and Caspase-3 and degradation of cIAP-1 | Presence in tumor tissues [2]: presence of C6 in tumor tissues in significant quantity | IC50 (U937 cells): 8.98 µM | C1 ([3]; mice, IV route, 4 mg/kg): 17 ± 4 mL/min/kg | C1 ([3]; mice, Oral route, 30 mg/kg): 29.8 ± 5.33 mL/min/kg | Vd ([3]; mice, Oral route, 30 mg/kg): 9.52 ± 3.75 L/kg | C1 ([3]; mice, SC route, 30 mg/kg): 29.2 ± 4 mL/min/kg | Vd ([3]; mice, SC route, 30 mg/kg): 5.32 ± 0.98 L/kg | AUC(0-inf) ([3]; mouse, plasma, iv, 4 mg/kg): 4110 ± 852 ng·h/mL | Cmax ([3]; mouse, plasma, iv, 4 mg/kg): 10200 ± 2630 ng/mL | MRT ([3]; mouse, plasma, iv, 4 mg/kg): 1.72 ± 0.46 h | Tmax ([3]; mouse, plasma, iv, 4 mg/kg): 0.08 h | Vd ([3]; mouse, plasma, iv, 4 mg/kg): 0.28 ± 0.12 L/kg | bioavailability ([3]; mouse, plasma, oral, 30 mg/kg): 55.9 ± 11.2% | AUC(0-inf) ([3]; mouse, plasma, po, 30 mg/kg): 17200 ± 3430 ng·h/mL | Cmax ([3]; mouse, plasma, po, 30 mg/kg): 4490 ± 1510 ng/mL | MRT ([3]; mouse, plasma, po, 30 mg/kg): 4.18 ± 1.81 h | Tmax ([3]; mouse, plasma, po, 30 mg/kg): 1.08 ± 0.47 h | AUC(0-inf) ([3]; mouse, plasma, sc, 30 mg/kg): 17400 ± 2220 ng·h/mL | Cmax ([3]; mouse, plasma, sc, 30 mg/kg): 5020 ± 854 ng/mL | MRT ([3]; mouse, plasma, sc, 30 mg/kg): 8.92 ± 1.35 h | Tmax ([3]; mouse, plasma, sc, 30 mg/kg): 0.88 ± 0.21 h | bioavailability ([3]; mouse, plasma, subcutaneous, 30 mg/kg): 56.6 ± 7.21% | IC50 (786-O cells): 7.2 µM | Colony formation in XIAP overexpressed and DR5 knock down cells (cancer cells; XIAP overexpressed and DR5 knock down cells): significant resistant of C6 mediated apoptotic cell death | Colony formation: effect of Pan caspase inhibitor Z-VAD-FMK on C6 cytotoxic phenotype (cancer cells; with Z-VAD-FMK): markedly rescues cytotoxic phenotype of C6
